Non-standard residues stand in square brackets, D forms with d. Residues, ends and D or L forms follow the SMILES beside them.
Experiments:
[1] = stability of opiate-like activity upon incubation with rat brain homogenate and brain-supernate; assay type: in vitro ADME; conditions: for opiate-like activity after 30 minutes of incubation / opiate-like activity after 120 minutes of incubation: brain homogenate and brain-supernate, 37° C.
Experimental: All incubations of the substances with brain homogenate and brain-supernate take place at 37° C. The respective incubation time is terminated by heating for 10 min. at a temperature of 95° C. This heating up to 95° C. serves to destroy enzymes which are still present and which might be detrimental for the biological procedure for proving the opiate-like activity.
1-2 mg each of the β-casomorphin-5 and of the D-Ala^2 -β-casomorphin-5 according to the invention are put into 50 μl of H2 O and mixed with 300 μl each of brain homogenate and brain-supernate. A sample of each is immediately heated from 37° C. up to 95° C. prior to the incubation. Thus these samples are in contact with the active enzymes only for a very short time and their content of opiate-like activity serves as a reference value at a zero point of time.
After 15, 30, 60, and 120 min. each, further samples of the two incubated opiates are taken from the incubator and heated up to 95° C.
The guinea pig intestine test described by Kosterlitz et al supra, serves as a proving system, which also includes the opiate amounts quantitatively. […]

[2] = stability of opiate-like activity towards rat blood plasma; assay type: in vitro ADME; conditions: for stability of opiate-like activity towards blood plasma: 300 μl freshly obtained rat blood plasma, 30 minutes stated for β-casomorphin-5
Experimental: Analogously to the above-mentioned incubation example we tested the stability of the opiate-like activity towards blood plasma. Instead of 300 μl of homogenate, we employed 300 μl of freshly obtained rat blood plasma.

[3] = analgetic effect after parenteral or oral application in rats; assay type: in vivo; conditions: up to 150 mg per kg of body weight
Experimental: The dose in these tests amounted up to 150 mg per kg of body weight of the rats. This disadvantage of the known peptides can be partially or completely attributed to inactivation of the substance in the blood and/or the brain.

[4] = 0.35 μmol into the ventricle system of the brain, rats; cited from earlier work

## COC(=O)CNC(=O)[C@@H]1CCCN1C(=O)[C@H](Cc1ccccc1)NC(=O)[C@@H](C)NC(=O)[C@@H](N)Cc1ccc(O)cc1 [D-Ala^2 -β-casomorphin-5, Tyr-D-Ala-Phe-Pro-Gly-methylester] (H-Y[dA]FPG-OMe)
[1]
  opiate-like activity after 30 minutes of incubation: still could be proven
  opiate-like activity after 120 minutes of incubation: still could be proven
[2]
  stability of opiate-like activity towards blood plasma: retained its full activity

## Tyr-Pro-Phe-Pro-Gly (YPFPG; printed: Tyr-Pro-Phe-Pro-Gly) [β-casomorphin-5]
[3]
  analgetic effect: does not show any analgetic effect
[1]
  opiate-like activity after 30 minutes of incubation: did not show any opiate-like activity any longer
[1]; rat brain homogenate
  incubation period after which opiate-like activity disappears: 15 min
[2]
  stability of opiate-like activity towards blood plasma: already destroyed
[2]; blood plasma
  incubation period after which opiate-like activity disappears: 15 min
[4]
  opiate-like analgesia: strong opiate-like analgesia
  time after which analgesia completely disappeared: 60 min
  time to maximum effectiveness of analgesia: ≤ 10 min

## COC(=O)CNC(=O)[C@@H]1CCCN1C(=O)[C@H](Cc1ccccc1)NC(=O)[C@@H](CO)NC(=O)[C@@H](N)Cc1ccc(O)cc1 [D-Ser^2 -β-casomorphin-5, Tyr-D-Ser-Phe-Pro-Gly-methylester] (H-Y[dS]FPG-OMe)
[1]
  opiate-like activity after 30 minutes of incubation: still could be proven
  opiate-like activity after 120 minutes of incubation: still could be proven

## COC(=O)CNC(=O)[C@@H]1CCCN1C(=O)[C@H](Cc1ccccc1)NC(=O)[C@@H](CCSC)NC(=O)[C@@H](N)Cc1ccc(O)cc1 [D-Met^2 -β-casomorphin-5, Tyr-D-Met-Phe-Pro-Gly-methylester] (H-Y[dM]FPG-OMe)
[1]
  opiate-like activity after 30 minutes of incubation: still could be proven
  opiate-like activity after 120 minutes of incubation: still could be proven

## COC(=O)CNC(=O)[C@@H]1CCCN1C(=O)[C@H](Cc1ccccc1)NC(=O)[C@@H](CCCNC(=N)N)NC(=O)[C@@H](N)Cc1ccc(O)cc1 [D-Arg^2 -β-casomorphin-5, Tyr-D-Arg-Phe-Pro-Gly-methylester] (H-Y[dR]FPG-OMe)
[1]
  opiate-like activity after 30 minutes of incubation: still could be proven
  opiate-like activity after 120 minutes of incubation: still could be proven
